In US20250215030A1, “STAT MODULATORS AND USES THEREOF” (Recludix Pharma, Inc., priority 2022, published 2025):

How the values were obtained:
pSTAT3 (pY705-STAT3) = target: T1, pSTAT3 (pY705-STAT3) (Homo sapiens, UniProt P40763); test: MSD-pSTAT-PBMC Assay (pSTAT3, IL-6 stimulated); type: cell-based; settings: PBMC, compound 3 hrs, then 10 ng/mL IL-6 for 10 min; MSD pY705-STAT3; read-out: pSTAT3
T1 construct: host or cells: cryopreserved PBMC
Summary of the method: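 Human PBMCs (50,000 cells/well for STAT3, 25,000 for STAT6) treated with compound 3 h, then stimulated 10 min with 10 ng/mL IL-6 or 1 ng/mL IL-4. Lysate pSTAT3 (pY705) or pSTAT6 (pY641) measured by MSD sandwich electrochemiluminescence. Signal minus unstimulated, normalized to DMSO; IC50 by variable-slope nonlinear regression.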

pSTAT6 (pY641-STAT6) = target: T2, pSTAT6 (pY641-STAT6) (Homo sapiens, UniProt P42226); test: MSD-pSTAT-PBMC Assay (pSTAT6, IL-4 stimulated); type: cell-based; settings: compound 3 hrs, then 1 ng/mL IL-4 for 10 min
T2 construct: host or cells: cryopreserved PBMC
T2 sequence (P42226 1-847): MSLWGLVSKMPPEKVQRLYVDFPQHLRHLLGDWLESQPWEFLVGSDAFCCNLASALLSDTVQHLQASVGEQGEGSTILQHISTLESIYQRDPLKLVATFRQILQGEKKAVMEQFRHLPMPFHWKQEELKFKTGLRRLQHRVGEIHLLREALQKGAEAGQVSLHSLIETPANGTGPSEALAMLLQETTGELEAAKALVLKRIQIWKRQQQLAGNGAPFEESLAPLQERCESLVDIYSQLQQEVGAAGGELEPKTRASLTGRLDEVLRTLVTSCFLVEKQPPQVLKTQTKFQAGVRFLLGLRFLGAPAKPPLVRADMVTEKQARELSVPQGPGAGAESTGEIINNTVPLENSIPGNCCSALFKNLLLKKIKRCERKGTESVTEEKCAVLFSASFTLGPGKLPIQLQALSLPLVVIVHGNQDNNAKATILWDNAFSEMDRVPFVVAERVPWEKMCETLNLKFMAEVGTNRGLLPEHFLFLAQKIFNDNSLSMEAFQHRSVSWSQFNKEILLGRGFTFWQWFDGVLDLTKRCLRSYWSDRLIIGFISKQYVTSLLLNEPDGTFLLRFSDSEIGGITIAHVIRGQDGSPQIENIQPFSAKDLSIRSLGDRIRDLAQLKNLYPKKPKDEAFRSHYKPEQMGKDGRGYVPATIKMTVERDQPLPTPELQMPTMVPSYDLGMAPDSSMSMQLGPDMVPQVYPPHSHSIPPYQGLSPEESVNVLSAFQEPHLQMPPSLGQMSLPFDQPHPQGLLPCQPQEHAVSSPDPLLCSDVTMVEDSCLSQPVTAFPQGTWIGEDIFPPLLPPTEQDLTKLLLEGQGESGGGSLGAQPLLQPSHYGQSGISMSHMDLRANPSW
Description: Cryopreserved Peripheral Blood Mononuclear Cells (PBMC) are from AllCells. Recombinant Human IL-4 and IL-6 are from Peprotech. Mouse monoclonal anti-STAT3 antibody, rabbit monoclonal anti-pY705-STAT3 antibody, rabbit monoclonal Anti-pY641-STAT6 antibody, and lysis buffer are from Cell Signaling Technology (CST). Mouse monoclonal anti-STAT6 antibody is from BioLegend. Assay plates, blocker, and anti-rabbit secondary antibody are from Meso Scale Discovery (MSD).
Cryopreserved PBMCs were thawed out and allowed to recover overnight in IMDM+10% heat-inactivated FBS prior to plating 50,000 (STAT3) or 25,000 (STAT6) cells per well in 96-well U-bottom tissue culture plates. Cells were treated with compound for 3 hrs, then stimulated with 10 ng/mL IL-6 (STAT3) or 1 ng/mL IL-4 (STAT6) for 10 min. Cells were then spun down and washed with ice-cold PBS prior to lysing the cell pellet with 1× lysis buffer (CST) with 1× HALT protease and phosphatase inhibitor cocktail (Thermo). Lysates were transferred to and incubated overnight at 4° C. with shaking in QuickPlex 96-well high bind assay plates (MSD) pre-coated overnight with 30 μL per well of 0.6 μg/mL mouse monoclonal anti-STAT3 antibody (STAT3) or 2 μg/mL mouse monoclonal anti-STAT6 antibody (STAT6) in 1×PBS, and pre-blocked for 1 hour with 3% Blocker-A (MSD). Captured protein in the assay plates were then washed and probed with 25 μL per well of 0.25 μg/ml rabbit monoclonal anti-pY705-STAT3 antibody (STAT3) or 0.18 μg/ml rabbit monoclonal Anti-pY641-STAT6 antibody (STAT6) in 1% Blocker-A for 1 hour at room temperature with shaking, then washed and probed with 25 ul per well of 1 ug/mi Sulfo-TAG Labeled Goat Anti-Rabbit Antibody (MSD) in 1% Blocker-A for 1 hour at room temperature with shaking. Assay plates were then washed and 150 μL of 1× Read Buffer-T (MSD) was added to each well prior to reading on an SQ120 MSD Plate Reader. Assay signal from each sample was subtracted by the signal from unstimulated control wells and normalized to DMSO control wells. IC50 values were calculated using Graph Pad Prism Dose-Response Nonlinear Regression with variable slope. For both pSTAT3 and pSTAT6 A=≤100 nM; B=>100-1000 nM; C=>1000-3000 nM; and D=>3 μM.

T1 sequence (P40763 whole entry): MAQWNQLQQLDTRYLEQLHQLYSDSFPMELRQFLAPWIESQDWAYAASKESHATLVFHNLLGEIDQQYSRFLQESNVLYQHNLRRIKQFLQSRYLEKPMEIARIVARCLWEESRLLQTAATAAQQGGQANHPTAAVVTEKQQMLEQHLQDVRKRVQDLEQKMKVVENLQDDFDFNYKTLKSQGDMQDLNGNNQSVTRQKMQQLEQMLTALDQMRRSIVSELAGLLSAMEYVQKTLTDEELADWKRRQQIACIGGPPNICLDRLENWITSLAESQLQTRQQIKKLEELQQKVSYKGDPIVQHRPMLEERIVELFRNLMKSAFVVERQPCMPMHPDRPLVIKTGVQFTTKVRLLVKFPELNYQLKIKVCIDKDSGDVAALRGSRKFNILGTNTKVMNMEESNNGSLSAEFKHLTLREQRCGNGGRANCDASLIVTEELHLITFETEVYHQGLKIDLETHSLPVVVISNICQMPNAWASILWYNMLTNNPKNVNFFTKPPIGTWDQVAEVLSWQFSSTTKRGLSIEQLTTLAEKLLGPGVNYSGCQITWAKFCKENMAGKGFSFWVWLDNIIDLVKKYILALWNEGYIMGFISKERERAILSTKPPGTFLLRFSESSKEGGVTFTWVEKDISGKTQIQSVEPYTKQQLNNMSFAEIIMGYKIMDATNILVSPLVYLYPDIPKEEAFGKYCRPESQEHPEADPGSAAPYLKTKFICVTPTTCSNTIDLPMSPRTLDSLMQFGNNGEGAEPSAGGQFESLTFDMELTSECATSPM

CC(C)(C)C(=O)OCOP(=O)(OCOC(=O)C(C)(C)C)C(F)(F)c1ccc2sc(C(=O)N[C@H]3C[C@H]4C[C@H]4C[C@H]4CC[C@@H](C(=O)N5C[C@@H](C#N)[C@H](c6ccccc6)C5)N4C3=O)cc2c1 [Compound 140, ((((2-(((3S,6S,7aR, 8aS,9aR)-3-((3S,4R)-3-cyano-4-phenyl-pyrrolidine-1-carbonyl)-5-oxodecahydro-1H-cyclopropa [d]pyrrolo[1,2-a]azocin-6-yl)carbamoyl)benzo[b]thiophen-5-yl)difluoromethyl)phosphoryl)bis(oxy)) bis(methylene) bis(2,2-dimethylpro-panoate)] showed an IC50 (pSTAT3 (pY705-STAT3)) of under 0.1 µM and an IC50 (pSTAT6 (pY641-STAT6)) of under 0.1 µM.

In the case of CC(C)CC(=O)SCCOP(=O)(OCOC(=O)OC(C)C)C(F)(F)c1ccc2sc(C(=O)N[C@H]3C[C@@H]4C[C@@H]4C[C@H]4CC[C@@H](C(=O)N5CC(C(=O)N6CCOCC6)C5)N4C3=O)cc2c1 (stereo partly drawn) [Compound 141, S-(2-(((difluoro(2-(((3S,6S,7aS, 8aR,9aR)-3-(3-(morpholine-4-carbonyl)azetidine-1-carbonyl)-5-oxodecahydro-1H-cyclopropa [d]pyrrolo[1,2-a]azocin-6-yl)carbamoyl)benzo[b]thiophen-5-yl)methyl)(((iso-propoxy-carbonyl)oxy)methoxy)phos-phoryl)oxy)ethyl) 3-methylbutane thioate], the IC50 (pSTAT3 (pY705-STAT3)) is reported as under 0.1 µM and the IC50 (pSTAT6 (pY641-STAT6)) is reported as 1 to 3 µM.

CC(=O)N1C[C@@H](F)[C@@H](NC(=O)[C@@H]2CC[C@@H]3C[C@@H]4C[C@@H]4C[C@H](NC(=O)c4cc5cc(C(F)(F)P(=O)(OCCSC(=O)CC(C)C)OCCSC(=O)CC(C)C)ccc5s4)C(=O)N32)C1 [Compound 142, S,S′-(((((2-(((3S,6S,7aR, 8aS,9aR)-3-(((3S,4R)-1-acetyl-4-fluoropyrrolidin-3-yl)carbamoyl)-5-oxodecahydro-1H-cyclopropa [d]pyrrolo[1,2-a]azocin-6-yl)carbamoyl)benzo[b]thiophen-5-yl)difluoromethyl)phosphoryl)bis(oxy))bis(ethane-2,1-diyl)) bis(3-methylbutane thioate)] was tested, and the IC50 (pSTAT3 (pY705-STAT3)) was under 0.1 µM and the IC50 (pSTAT6 (pY641-STAT6)) was 1 to 3 µM.

For C[C@@H](NP(=O)(Cc1ccc2sc(C(=O)N[C@H]3C[C@@H]4C[C@@H]4C[C@H]4CC[C@@H](C(=O)N5CC(C(=O)N6CCOCC6)C5)N4C3=O)cc2c1)Oc1ccccc1)C(=O)OCc1ccccc1 (stereo partly drawn) [Compound 143, benzyl (((2-(((3S,6S,7aS, 8aR,9aR)-3-(3-(morpholine-4-carbonyl)azetidine-1-carbonyl)-5-oxodecahydro-1H-cyclopropa [d]pyrrolo[1,2-a]azocin-6-yl)carbamoyl)benzo[b]thiophen-5-yl)methyl) (phenoxy)phosphoryl)-D-alaninate], the IC50 (pSTAT3 (pY705-STAT3)) was 0.1 to 1 µM and the IC50 (pSTAT6 (pY641-STAT6)) was over 3 µM.

Compound CC(C)(C)C(=O)SCCOP(=O)(Cc1ccc2sc(C(=O)N[C@H]3C[C@@H]4C[C@@H]4C[C@H]4CC[C@@H](C(=O)N5CC(C(=O)N6CCOCC6)C5)N4C3=O)cc2c1)OCCSC(=O)C(C)(C)C [Compound 144, S,S′-(((((2-(((3S,6S,7aS, 8aR,9aR)-3-(3-(morpholine-4-carbonyl)azetidine-1-carbonyl)-5-oxodecahydro-1H-cyclopropa[d]pyrrolo[1,2-a]azocin-6-yl)carbamoyl)benzo[b]thiophen-5-yl)methyl)phosphoryl)bis(oxy))bis(ethane-2,1-diyl)) bis(2,2-dimethyl-propanethioate)] has an IC50 (pSTAT3 (pY705-STAT3)) of 0.1 to 1 µM and an IC50 (pSTAT6 (pY641-STAT6)) of over 3 µM.

CC(C)(C)C(=O)OCOP(=O)(OCOC(=O)C(C)(C)C)C(F)(F)c1ccc2sc(C(=O)N[C@H]3C[C@@H]4C[C@@H]4C[C@H]4CC[C@@H](C(=O)N5CC(C(=O)N6CCOCC6)C5)N4C3=O)cc2c1 [Compound 145, (((difluoro(2-(((3S,6S,7aS, 8aR,9aR)-3-(3-(morpholine-4-carbonyl)azetidine-1-carbonyl)-5-oxodecahydro-1H-cyclopropa [d]pyrrolo[1,2-a]azocin-6-yl)carbamoyl)benzo[b]thiophen-5-yl)methyl)phosphoryl)bis(oxy)) bis(methylene) bis(2,2-dimethyl-propanoate)] showed an IC50 (pSTAT3 (pY705-STAT3)) of under 0.1 µM and an IC50 (pSTAT6 (pY641-STAT6)) of 1 to 3 µM.

For CC(C)(CO)C(=O)SCCOP(=O)(Cc1ccc2sc(C(=O)N[C@H]3C[C@@H]4C[C@@H]4C[C@H]4CC[C@@H](C(=O)N5CC(n6ccnc6)C5)N4C3=O)cc2c1)OCCSC(=O)C(C)(C)CO [Compound 146, S,S′-(((((2-(((3S,6S,7aS, 8aR,9aR)-3-(3-(1H-imidazol-1-yl)azetidine-1-carbonyl)-5-oxodecahydro-1H-cyclopropa[d]pyrrolo[1,2-a]azocin-6-yl)carbamoyl)benzo[b]thiophen-5-yl)methyl)phosphoryl)bis(oxy))bis(ethane-2,1-diyl)) bis(3-hydroxy-2,2-dimethyl-propanethioate)], the IC50 (pSTAT3 (pY705-STAT3)) was over 3 µM and the IC50 (pSTAT6 (pY641-STAT6)) was over 3 µM.

CC(C)OC(=O)OCOP(=O)(Cc1ccc2sc(C(=O)N[C@H]3C[C@@H]4C[C@@H]4C[C@H]4CC[C@@H](C(=O)N5CC(C(=O)N6CCOCC6)C5)N4C3=O)cc2c1)OCOC(=O)OC(C)C [Compound 148] showed an IC50 (pSTAT3 (pY705-STAT3)) of 0.1 to 1 µM and an IC50 (pSTAT6 (pY641-STAT6)) of over 3 µM.

CCCC(=O)SCCOP(=O)(Cc1ccc2sc(C(=O)N[C@H]3C[C@@H]4C[C@@H]4C[C@H]4CC[C@@H](C(=O)N5CC(C(=O)N6CCOCC6)C5)N4C3=O)cc2c1)OCCSC(=O)CCC [Compound 149, S,S′-(((((2-(((3S,6S,7aS, 8aR,9aR)-3-(3-(morpholine-4-carbonyl)azetidine-1-carbonyl)-5-oxodecahydro-1H-cyclopropa[d]pyrrolo[1,2-a]azocin-6-yl)carbamoyl)benzo[b]thiophen-5-yl)methyl)phosphoryl)bis(oxy))bis(ethane-2,1-diyl)) dibutanethioate] was tested, and the IC50 (pSTAT3 (pY705-STAT3)) was 1 to 3 µM and the IC50 (pSTAT6 (pY641-STAT6)) was over 3 µM.

Compound CC(C)(C)C(=O)OCOP(=O)(Cc1ccc2sc(C(=O)N[C@H]3C[C@@H]4C[C@@H]4C[C@H]4CC[C@@H](C(=O)N5CC(C(=O)N6CCOCC6)C5)N4C3=O)cc2c1)OCOC(=O)C(C)(C)C [Compound 150, ((((2-(((3S,6S, 7aS,8aR,9aR)-3-(3-morpholine-4-carbonyl)azetidine-1-carbonyl)-5-oxodecahydro-1H-cyclopropa [d]pyrrolo[1,2-a]azocin-6-yl)carbamoyl)benzo [b]thiophen-5-yl)methyl)phosphoryl) bis(oxy)) bis(methylene) bis(2,2-dimethyl-propanoate)] has an IC50 (pSTAT3 (pY705-STAT3)) of under 0.1 µM and an IC50 (pSTAT6 (pY641-STAT6)) of over 3 µM.

With CC(C)(C)C(=O)SCCOP(=O)(Cc1ccc2sc(C(=O)N[C@H]3C[C@@H]4C[C@@H]4C[C@H]4CC[C@@H](C(=O)N5CC(n6ccnc6)C5)N4C3=O)cc2c1)OCCSC(=O)C(C)(C)C [Compound 151, S,S′-(((((2-(((3S,6S,7aS, 8aR,9aR)-3-(3-(1H-imidazol-1-yl)azetidine-1-carbonyl)-5-oxodecahydro-1H-cyclopropa [d]pyrrolo[1,2-a]azocin-6-yl)carbamoyl)benzo[b]thiophen-5-yl)methyl)phosphoryl)bis(oxy))bis(ethane-2,1-diyl)) bis(2,2-dimethyl-propanethioate)] the IC50 (pSTAT3 (pY705-STAT3)) was 0.1 to 1 µM and the IC50 (pSTAT6 (pY641-STAT6)) was over 3 µM.
